± gives the standard deviation of the averaged measurements.
Test: TIMS collisional cross section (CCS, N2) of the lipid ion; higher = larger ion cross section
Details: ionization mode: positive, one isomer drawn

| TIMS collisional cross section (sample type: HeLa) | TIMS collisional cross section (sample type: Liver) | TIMS collisional cross section (sample type: plasma) | Compound |
| --- | --- | --- | --- |
|  | 302.3 Å² | 301.9 Å² | CCCCCCCCCCCCC/C=C/[C@@H](O)[C@H](COP(=O)([O-])OCC[N+](C)(C)C)NC(=O)CCCCCCCCCCCCCCCCCCCCC [SM d18:1_22:0@] (ion (formula + adduct): [C45H91N2O6P+H] 1+) |
|  | 310.2 Å² |  | CCCCCC/C=C\CCCCCCCC(=O)OC[C@@H](COC(=O)CCCCCCCCCCCCCCC)OC(=O)CCCCCCC/C=C\CCCCCC [TG 16:0_16:1_16:1] (ion (formula + adduct): [C51H94O6+NH4] 1+) |
|  | 303 Å² |  | CCCCCC/C=C\CCCCCCCC(=O)O[C@H](COC(=O)CCCCCCCCCCC)COC(=O)CCCCCCCCCCCCCCCC [TG 12:0_16:1_17:0] (ion (formula + adduct): [C48H90O6+NH4] 1+) |
| 329.4 Å² | 329.3 Å² |  | CC/C=C\C/C=C\C/C=C\C/C=C\C/C=C\C/C=C\CCC(=O)OC[C@@H](COC(=O)CCCCCCCCCCCCCCC)OC(=O)CCCCCC/C=C\C/C=C\C/C=C\CCCCC [TG 16:0_20:3_22:6] (ion (formula + adduct): [C61H100O6+NH4] 1+) |
|  | 332.8 Å² |  | CCCCC/C=C\C/C=C\CCCCCCCC(=O)OC[C@H](COC(=O)CCCCCCCCC/C=C\CCCCCCCC)OC(=O)CCCCCCC/C=C\CCCCCCCCC [TG 18:2_19:1_20:1] (ion (formula + adduct): [C60H108O6+NH4] 1+) |
| 308.4 Å² |  |  | CCCCC/C=C\C/C=C\CCCCCCCC(=O)OC[C@@H](COC(=O)CCCCCCC/C=C\CCCCC)OC(=O)CCCCCCC/C=C\CCCCCC [TG 15:1_16:1_18:2] (ion (formula + adduct): [C52H92O6+NH4] 1+) |
| 289.5 Å² |  |  | CCCCC/C=C\CCCCCCCC(=O)OC[C@@H](COC(=O)CCCCCCCCCCC)OC(=O)CCCCCCCCCCCCC [TG 12:0_14:0_15:1] (ion (formula + adduct): [C44H82O6+NH4] 1+) |
| 309.3 Å² | 310.3 Å² | 309.45 ± 0.071 Å² | CCCCCC/C=C\CCCCCCCC(=O)O[C@@H](COC(=O)CCCCCCC/C=C\CCCCCCCC)COC(=O)CCCCCCCCCCCCC [TG 14:0_16:1_18:1] (ion (formula + adduct): [C51H94O6+NH4] 1+) |
| 315.7 Å² |  |  | CCCCCC/C=C\CCCCCCCC(=O)OC[C@H](COC(=O)CCCCCCC/C=C\CCCCCCC)OC(=O)CCCCCCCCCCCCCCCC [TG 16:1_17:0_17:1] (ion (formula + adduct): [C53H98O6+NH4] 1+) |
|  | 305.9 Å² |  | CCCCC/C=C\CCCCCCCC(=O)O[C@H](COC(=O)CCCCCCCCCCCCCC)COC(=O)CCCCCCCCCCCCCCC [TG 15:0_15:1_16:0] (ion (formula + adduct): [C49H92O6+NH4] 1+) |
| 302.9 ± 0.28 Å² |  | 303.5 Å² | CCCCCC/C=C\CCCCCCCC(=O)OC[C@@H](COC(=O)CCCCCCCCCCCCC)OC(=O)CCCCCCC/C=C\CCCCCC [TG 14:0_16:1_16:1] (ion (formula + adduct): [C49H90O6+NH4] 1+) |
|  | 342.9 Å² | 343 Å² | CCCCCCCC/C=C\CCCCCCCCCCCC(=O)OC[C@@H](COC(=O)CCCCCCC/C=C\CCCCCCCC)OC(=O)CCCCCCCCC/C=C\CCCCCCCC [TG 18:1_20:1_22:1] (ion (formula + adduct): [C63H116O6+NH4] 1+) |
|  |  | 219 Å² | CC(C)CC[C@@H](O)[C@](C)(O)[C@H]1CC[C@@]2(O)C3=CC(=O)[C@@H]4C[C@@H](O)[C@@H](O)C[C@]4(C)[C@H]3CC[C@]12C [ponasterone A] (ion (formula + adduct): [C27H44O6+H] 1+) |
|  | 322.9 Å² | 323.2 Å² | CCCCC/C=C\C/C=C\CCCCCCCC(=O)OC[C@@H](COC(=O)CCCCCCCCCCCCCCCC)OC(=O)CCCCCCC/C=C\CCCCCCCC [TG 17:0_18:1_18:2] (ion (formula + adduct): [C56H102O6+NH4] 1+) |
| 344.2 Å² |  |  | CCCCCCCC/C=C\CCCCCCCC(=O)OC[C@H](COC(=O)CCCCCCCCCCCCCCCCCCCC)OC(=O)CCCCCCCCCCCCCCCCCCC [TG 18:1_20:0_21:0] (ion (formula + adduct): [C62H118O6+NH4] 1+) |
| 284.9 Å² | 285 Å² | 285.4 Å² | CCCCCCCCCCCCC/C=C/[C@@H](O)[C@H](COP(=O)([O-])OCC[N+](C)(C)C)NC(=O)CCCCCCCCCCCCCCC [SM d18:1_16:0@] (ion (formula + adduct): [C39H79N2O6P+H] 1+) |
|  | 299.8 Å² |  | CCCC/C=C\CCCCCCCC(=O)O[C@H](COC(=O)CCCCCCCCCCCCC)COC(=O)CCCCCCCCCCCCCCC [TG 14:0_14:1_16:0] (ion (formula + adduct): [C47H88O6+NH4] 1+) |

Continued, compound first:

| Compound | TIMS collisional cross section (sample type: HeLa) | TIMS collisional cross section (sample type: Liver) | TIMS collisional cross section (sample type: plasma) |
| --- | --- | --- | --- |
| CCCCCCCC/C=C\CCCCCCCC(=O)O[C@H](COC(=O)CCCCCCCCCCCCCCC)COP(=O)([O-])OCC[N+](C)(C)C [PC 16:0@_18:1] (ion (formula + adduct): [C42H82NO8P+H] 1+) | 289.15 ± 0.49 Å² | 287.6 Å² | 288.2 Å² |
| CCCCC/C=C\C/C=C\C/C=C\C/C=C\CCCC(=O)O[C@H](COCCCCCCCCCCCCCCCC)COP(=O)(O)OCCN [PE O- 16:0@_20:4] (ion (formula + adduct): [C41H76NO7P+H] 1+) |  |  | 275.8 Å² |
| CCCCCCCCCCCCC/C=C/[C@@H](O)[C@H](CO)NC(=O)CCCCCCCCCCCCCCCCCCCCCCC [Cer d18:1_24:0@] (ion (formula + adduct): [C42H83NO3+H] 1+) |  | 281.2 Å² | 281.1 Å² |
| CCCCC/C=C\C/C=C\CCCCCCCC(=O)O[C@H](COC(=O)CCCCCCC/C=C\CCCCCC)COP(=O)([O-])OCC[N+](C)(C)C [PC 16:1_18:2@] (ion (formula + adduct): [C42H78NO8P+H] 1+) | 281 Å² |  |  |
| CCCCC/C=C\C/C=C\CCCCCCCC(=O)OC[C@@H](O)COP(=O)(O)OCCN [LPE 18:2] (ion (formula + adduct): [C23H44NO7P+H] 1+) |  | 211.45 ± 1.1 Å² | 214.1 Å² |
| CCCCCC/C=C\CCCCCCCC(=O)OC[C@@H](O)COP(=O)(O)OCCN [LPE 16:1_0:0] (ion (formula + adduct): [C21H42NO7P+H] 1+) | 210.1 Å² |  |  |
| CCCCC/C=C\C/C=C\C/C=C\CCCCCCC(=O)O[C@H](CO/C=C\CCCCCCCCCCCCCC)COP(=O)(O)OCCN [PE P- 16:0@_20:3] (ion (formula + adduct): [C41H76NO7P+H] 1+) | 275.1 Å² |  | 276.2 Å² |
| CCCCC/C=C\C/C=C\C/C=C\CCCCC(=O)O[C@H](COC(=O)CCCCCCC/C=C\CCCCCC)COP(=O)(O)OCCN [PE 16:1@_18:3] (ion (formula + adduct): [C39H70NO8P+H] 1+) |  | 266 Å² |  |
| CCCCC/C=C\C/C=C\C/C=C\C/C=C\CCCC(=O)O[C@H](COC(=O)CCCCCCCCCCCCCCCCC)COP(=O)(O)OCCN [PE 18:0_20:4@] (ion (formula + adduct): [C43H78NO8P+H] 1+) | 284.1 Å² | 283.9 ± 0.37 Å² |  |
| CCCCC/C=C\C/C=C\CCCCCCCC(=O)O[C@H](COCCCCCCCCCCCCCCCCCC)COP(=O)([O-])OCC[N+](C)(C)C [PC O- 18:0@_18:2] (ion (formula + adduct): [C44H86NO7P+H] 1+) |  |  | 294.7 Å² |
| CCCCCCCC/C=C\CCCCCCCC(=O)O[C@H](CO/C=C\CCCCCCCCCCCCCC)COP(=O)(O)OCCN [PE P- 16:0@_18:1] (ion (formula + adduct): [C39H76NO7P+H] 1+) | 274 Å² | 274.1 Å² | 274.1 Å² |
| CCCCC/C=C\C/C=C\C/C=C\C/C=C\CCCCCC(=O)O[C@@H](CO)COC(=O)CCCCCCC/C=C\CCCCCCCC [DG 18:1_22:4_0:0] (ion (formula + adduct): [C43H74O5+NH4] 1+) |  |  | 273 Å² |
| CCCCCC/C=C/CCCCCCCC(=O)OC[C@@H](O)COP(=O)([O-])OCC[N+](C)(C)C [LPC 16:1] (ion (formula + adduct): [C24H48NO7P+H] 1+) | 226 Å² | 224.5 Å² | 225.13 ± 1.1 Å² |
| CC/C=C\C/C=C\C/C=C\C/C=C\C/C=C\C/C=C\CCC(=O)O[C@H](COC(=O)CCCCCCC/C=C\C/C=C\CCCCC)COP(=O)([O-])OCC[N+](C)(C)C [PC 18:2_22:6] (ion (formula + adduct): [C48H80NO8P+H] 1+) |  | 292.5 Å² |  |
| CCCCCC/C=C\CCCCCCCC(=O)O[C@H](COC(=O)CCCCCCCCCCCCCCC)COP(=O)([O-])OCC[N+](C)(C)C [PC 16:0@_16:1] (ion (formula + adduct): [C40H78NO8P+H] 1+) | 281.7 Å² |  | 282.2 Å² |
| CCCCC/C=C\C/C=C\C/C=C\C/C=C\CCCC(=O)O[C@H](CO/C=C\CCCCCCCCCCCCCCCC)COP(=O)(O)OCCN [PE P- 18:0@_20:4] (ion (formula + adduct): [C43H78NO7P+H] 1+) | 281.6 Å² | 281.6 Å² | 281.6 ± 0.14 Å² |
| CCCCCCCCCCCCCCCC(=O)O[C@H](CO)COP(=O)([O-])OCC[N+](C)(C)C [LPC 16:0] (ion (formula + adduct): [C24H50NO7P+H] 1+) |  | 229.9 Å² | 231 Å² |
| CC/C=C\C/C=C\C/C=C\C/C=C\C/C=C\CCCC(=O)O[C@H](COC(=O)CCCCCCCCCCCCCC)COP(=O)([O-])OCC[N+](C)(C)C [PC 15:0@_20:5] (ion (formula + adduct): [C43H76NO8P+H] 1+) | 282.3 Å² |  |  |

Reference: the supplement of paper PMC6965134
